ChEMBL document CHEMBL2086382, “From bradykinin B2 receptor antagonists to orally active and selective bradykinin B1 receptor antagonists” (J Med Chem, 2012)

Legend:
Conditions in all cases: in vivo
[1] = Volume of distribution in Sprague-Dawley rat at 10 mg/kg, po and 1 mg/kg, iv; type: ADME, organism-based
[2] = Oral bioavailability in Sprague-Dawley rat at 10 mg/kg; type: ADME, organism-based
[3] = Oral bioavailability in Swiss mouse at 5 mg/kg; type: ADME, organism-based
[4] = Volume of distribution in Swiss mouse at 5 mg/kg, po and 1 mg/kg, iv; type: ADME, organism-based
[5] = Oral bioavailability in Beagle dog at 5 mg/kg; type: ADME, organism-based, Canis lupus familiaris
[6] = Volume of distribution in Beagle dog at 5 mg/kg, po and 1 mg/kg, iv; type: ADME, organism-based, Canis lupus familiaris

SMILES | Vd [1] [L/kg] | bioavailability [2] [%] | bioavailability [3] [%] | Vd [4] [L/kg] | bioavailability [5] [%] | Vd [6] [L/kg]
COc1cc(C)c(S(=O)(=O)N(C)CCOCC(=O)N2CCC(C(C)(C)CN(C)C)CC2)c(C)c1 | 0.5 | 3.8 | – | – | – | –
COc1cc(C)c(S(=O)(=O)N(C)CCOCC(=O)N2CCC(C3CCN(C)CC3)CC2)c(C)c1 | 0.6 | 12.3 | – | – | – | –
COc1cc(C)c(S(=O)(=O)N(C)CCOCC(=O)N2CCN([C@@H]3CN4CCC3CC4)CC2)c(C)c1 | – | – | 6.7 | 1 | – | –
COc1cc(C)c(S(=O)(=O)N(C)CCOCC(=O)N(C)Cc2ccc(C3=NCCN3)cc2)c(C)c1 [SAFOTIBANT] | 1.4 | 0.3 | 12 | 2.6 | – | –
COc1cc(C)c(S(=O)(=O)N(C)CCOCC(=O)N2CCC(CCN(C)C)CC2)c(C)c1 | 0.79 | 19 | 38 | 0.5 | – | –
COc1cc(C)c(S(=O)(=O)N(C)CCOCC(=O)N2CCN(CC3CCN(C)CC3)CC2)c(C)c1 | 3.5 | 16 | – | – | – | –

Now from value to compound:

Vd [1] [L/kg] | bioavailability [2] [%] | bioavailability [3] [%] | Vd [4] [L/kg] | bioavailability [5] [%] | Vd [6] [L/kg] | SMILES
0.6 | 6 | – | – | – | – | COc1cc(C)c(S(=O)(=O)N(C)CCOCC(=O)N2CCC(N3CCN(C)CC3)CC2)c(C)c1
3.8 | 12 | – | – | – | – | CCN1CCC(N2CCN(C(=O)COCCN(C)S(=O)(=O)c3c(C)cc(OC)cc3C)CC2)CC1
1.5 | 18 | 22 | 1.3 | 43 | 2.7 | COc1cc(C)c(S(=O)(=O)N(C)CCOCC(=O)N2CCN(C3CCN(C)CC3)CC2)c(C)c1
